Numbering of substitutions follows the chain as printed.
Experiments:
κB-Ras1–RGα2N complex = molecular target: T1, κB-Ras1–RGα2N complex (Homo sapiens, UniProt Q9NYS0); assay: X-ray crystal structure, […] Å; details: Mg2+; 100 µM GNP added; nucleotide-binding pocket of κB-Ras1
T1 construct: gene NKIRAS1; GST-κB-Ras1 (2-175; 1-175 in Results) coexpressed in bacteria with 6xHis-SUMO-RGα2N (2-255, N-terminal domain); SUMO protease added, purified essentially as before, SEC
T1 sequence (Q9NYS0 2-175): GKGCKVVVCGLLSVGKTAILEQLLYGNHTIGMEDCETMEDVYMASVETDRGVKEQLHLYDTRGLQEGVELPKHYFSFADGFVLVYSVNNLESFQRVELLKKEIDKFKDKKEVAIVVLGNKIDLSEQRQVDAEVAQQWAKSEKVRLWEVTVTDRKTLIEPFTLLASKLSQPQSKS
T1 sequence (Q2PPJ7 2-255 partner): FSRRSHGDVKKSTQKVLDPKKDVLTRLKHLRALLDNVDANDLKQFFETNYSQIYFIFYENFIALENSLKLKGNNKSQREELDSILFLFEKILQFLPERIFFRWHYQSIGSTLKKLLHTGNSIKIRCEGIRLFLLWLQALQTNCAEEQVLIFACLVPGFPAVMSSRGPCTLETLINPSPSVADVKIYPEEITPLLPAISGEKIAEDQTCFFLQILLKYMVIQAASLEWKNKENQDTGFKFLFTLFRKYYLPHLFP

κB-Ras1 [1] = molecular target: T2, κB-Ras1 (Homo sapiens, UniProt Q9NYS0, G64A); assay: intrinsic GTP hydrolysis, HPLC of GTP/GDP; type: biochemical; details: 100 µM GTP, 24 h, 5 mM MgCl2, pH 7.5
T2 construct: gene NKIRAS1; residues 2-175, GST fusion from E. coli Rosetta, GST cut on column with PreScission protease, SEC
T2 sequence (Q9NYS0 2-175 G64A): T1 sequence (Q9NYS0 2-175) with G63A

κB-Ras1 [2] = molecular target: T3, κB-Ras1 (Homo sapiens, UniProt Q9NYS0, L65Q); assay: intrinsic GTP hydrolysis, HPLC of GTP/GDP; type: biochemical; details: 100 µM GTP, 24 h, 5 mM MgCl2, pH 7.5
T3 construct: gene NKIRAS1; residues 2-175, GST fusion from E. coli Rosetta, GST cut on column with PreScission protease, SEC
T3 sequence (Q9NYS0 2-175 L65Q): T1 sequence (Q9NYS0 2-175) with L64Q

κB-Ras1 [3] = molecular target: T4, κB-Ras1 (Homo sapiens, UniProt Q9NYS0); assay: intrinsic GTP hydrolysis, HPLC of GTP/GDP; type: biochemical; details: 100 µM GTP, 24 h, 5 mM MgCl2, pH 7.5
T4 construct: gene NKIRAS1; residues 2-175, GST fusion from E. coli Rosetta, GST cut on column with PreScission protease, SEC
T4 sequence (Q9NYS0 2-175): T1 sequence (Q9NYS0 2-175)

Structure (SMILES)	X-ray crystal structure, 2.72 Å (κB-Ras1–RGα2N complex)	intrinsic GTP hydrolysis, HPLC of GTP/GDP (κB-Ras1 [1])	intrinsic GTP hydrolysis, HPLC of GTP/GDP (κB-Ras1 [2])	intrinsic GTP hydrolysis, HPLC of GTP/GDP (κB-Ras1 [3])
Nc1nc2c(ncn2[C@@H]2O[C@H](COP(=O)(O)OP(=O)(O)NP(=O)(O)O)[C@@H](O)[C@H]2O)c(=O)[nH]1 [GNP, 5′-guanylyl imidodiphosphate]	nucleotide-binding pocket of κB-Ras1 is occupied by a magnesium ion and the nonhydrolyzable GTP analog			
Nc1nc2c(ncn2[C@@H]2O[C@H](COP(=O)(O)OP(=O)(O)OP(=O)(O)O)[C@@H](O)[C@H]2O)c(=O)[nH]1 [GTP]		This substitution did not reduce intrinsic GTP hydrolysis activity of κB-Ras1 in vitro	GTP hydrolysis was also not altered by this mutation	intrinsic GTP hydrolysis by K-Ras, Rheb, κB-Ras1 WT, and variants measured in vitro

Source: paper PMC12314375, “The GTPase κB-Ras is an essential subunit of the RalGAP tumor suppressor complex” (The Journal of Biological Chemistry, 2025)
